The results in this text go back to article PMC12304045 (2025).

For experiment [1], the system named is OTC-APT5, amine-terminated (DNA, aptamer) ACGACATTCCGTTGATCTCTCCCTTTTGGGTTGGTGTCGT
Nature of the experiment: DPV aptasensor, [Fe(CN)6]3-/4- probe. The conditions noted are these: 2 mM MgCl2, 10 mM phosphate buffer pH 7.4.

Experiment [2] relates to OTC-APT5 (DNA, aptamer) ACGACATTCCGTTGATCTCTCCCTTTTGGGTTGGTGTCGT
In words: fluorescence titration. To be noted: 100 mM NaCl, 5 mM KCl, 2 mM MgCl2, 2 mM CaCl2; 20 mM tris, 0.05% Tween 20; 200 nM OTC titrated with aptamer; unit likely misprint for nM.

Experiment [3] has the same test system. In words: fluorescence polarization titration. The conditions noted are these: 100 mM NaCl, 5 mM KCl, 2 mM MgCl2, 2 mM CaCl2; 20 mM tris, 0.05% Tween 20; 200 nM OTC titrated with aptamer.
Experiment [4] has the same test system. In words: circular dichroism. To be noted: 100 mM NaCl, 5 mM KCl, 2 mM MgCl2, 2 mM CaCl2; 20 mM tris, 0.05% Tween 20, 25 °C; 2 μM aptamer. In general terms: Circular dichroism is the unequal absorption of left and right circularly polarised light.
[5] abbreviates: highest tested 250 ng/mL, signal change <10% of OTC.

In the case of `CC1(C)S[C@@H]2[C@H](NC(=O)Cc3ccccc3)C(=O)N2[C@H]1C(=O)O`, in experiment [1] (setting [5]), the binding result is “no”. Consider `CC1(C)S[C@@H]2[C@H](NC(=O)[C@H](N)c3ccccc3)C(=O)N2[C@H]1C(=O)O`, for which the binding entry in experiment [1] (tested at fivefold excess over OTC, signal change <10% of OTC) is “no”. Take `CN(C)[C@@H]1C(=O)C(C(N)=O)=C(O)[C@@]2(O)C(=O)C3=C(O)c4c(O)cccc4[C@@](C)(O)[C@H]3C[C@@H]12`: the binding result in experiment [1] (50 ng/mL, signal similar to OTC) is “yes”. A word on the Kd: it is the concentration at which binding is half-saturated. Take `CN(C)[C@@H]1C(=O)C(C(N)=O)=C(O)[C@@]2(O)C(=O)C3=C(O)c4c(O)cccc4[C@@](C)(O)[C@H]3[C@H](O)[C@@H]12`: the Kd was 106 nM in experiment [2] and 62 nM in experiment [3]. For the same compound, the binding entry in experiment [1] (50 ng/mL OTC) and in experiment [4] was “yes” each time. Consider `CN[C@@H]1[C@H](O[C@H]2[C@H](O[C@H]3[C@H](O)[C@@H](O)[C@H](N=C(N)N)[C@@H](O)[C@@H]3N=C(N)N)O[C@@H](C)[C@]2(O)C=O)O[C@@H](CO)[C@H](O)[C@H]1O`, for which the binding entry in experiment [1] (setting [5]) was “no”.

Take `NC[C@H]1O[C@H](O[C@H]2[C@H](O)[C@@H](O[C@H]3O[C@H](CO)[C@@H](O)[C@H](N)[C@H]3O)[C@H](N)C[C@@H]2N)[C@H](O)[C@@H](O)[C@@H]1O`: in experiment [1] (setting [5]), the binding result is recorded as “no”.
